Values after ≈ are worked out from the molar mass of the structure shown.
What was measured:
Experiment in all cases: MIC, 96-well microplate microdilution (Example 14)
Format in all cases: cell-based
[1] = test system: L. monocytogenes (CIP 103575); conditions: for MIC: Listeria monocytogenes, CIP103575, Table 5, read-out: Minimum inhibitory concentration (MIC)
Procedure: (§1) The bacteriostatic properties of the derivatives are evaluated by measuring their minimum inhibitory concentration (MIC) on the bacteria tested. These measurements are made using the 96-well microplate microdilution method according to the conditions defined below. The minimum inhibitory concentrations (MIC) are tested on Gram-positive bacterial strains according to the recommendations of the “Clinical Laboratory Standards Institute” (Clinical-Laboratory-Standards-Institute, 6th ed. Approved standard M100-S17. CLSI, Wayne, Pa., 2007). The Gram-positive bacteria studied are as follows: L. monocytogenes (CIP 103575), E. faecalis (ATCC® 29212™) and S. aureus (ATCC® 292213 ™). The cultures studied, freshly isolated (after incubation on a blood agar at 37° C. for 18 h), are taken up in sterile water (10 mL) until obtaining a 0.5 McFarland (Mc) suspension i.e. 1 to 2×10^8 CFU (bacteria)/cm^3. The bacterial suspension was then diluted to obtain a final concentration of 5×10^5 CFU/cm3. Each well contains an identical quantity of Mueller-Hinton medium (a rich medium for bacterial culture) and bacteria with final 5×10^5 CFU/cm3. The test compounds of interest are solubilized in 2.5% of ethanol before being diluted to different concentrations two by two. On the multiwell plate, a first series has been planned comprising the culture medium without the test compound of interest. It corresponds to the growth control (control well). These controls serve as reference for comparing bacterial growth with that of the subsequent wells comprising different concentrations of the test compound of interest. The second series of wells comprises the mother solution for the test compound of interest for a concentration in the wells of 4 mM. Each series of wells was diluted two by two until the last series for a final concentration of 0.003 mM. Each concentration is duplicated in the same plate. The plate is incubated for 18 h at 37° C. […] If there is antibacterial activity, the bacterial growth is inhibited, which means that no turbidity or bacterial residue is present.

E. faecalis (ATCC 29212) = conditions: Enterococcus faecalis, ATCC29212, Table 5, read-out: Minimum inhibitory concentration (MIC)
Procedure: as §1

S. aureus (ATCC 292213) = conditions: for MIC: Staphylococcus aureus, ATCC292213, Table 5, read-out: Minimum inhibitory concentration (MIC)
Procedure: as §1

[2] = Table 7 comparison with reference products

Compound | MIC [1] [mM] | MIC (E. faecalis (ATCC 29212)) [mM] | MIC (S. aureus (ATCC 292213)) [mM] | Minimum inhibitory concentration (MIC) [1, 2] [mM] | Minimum inhibitory concentration (MIC) (S. aureus (ATCC 292213); [2]) [mM]
CCCCCOCC(O)[C@H]1OCC(O)C1O (some centres unmarked) [Entry 1, (1,4)-sorbitan pentyl ethers] | > 4 | > 4 | > 4 |  | 
CCCCCCOCC(O)[C@H]1OCC(O)C1O (some centres unmarked) [Entry 2] | > 4 | > 4 | > 4 |  | 
CCCCCCCCOCC(O)[C@H]1OCC(O)C1O (some centres unmarked) [Entry 3, Octyl-1,4-sorbitan] | > 4 | > 4 | > 4 |  | 
CCCCCCCCCCOCC(O)[C@H]1OCC(O)C1O (some centres unmarked) [Entry 4, Decyl-1,4-sorbitan] | > 4 | > 4 | > 4 |  | 
CCCCCCCCCCCC(=O)OCC(O)CO (centres unmarked) [ML, monolaurine, reference compound] |  |  |  | 0.04 (≈ 11 µg/mL) | 0.04 (≈ 11 µg/mL)

— US10653664B2, “Antibacterial compositions of mono-alkyl ethers of monoanhydro-hexitols and antibacterial methods using of the same” (TEREOS STARCH & SWEETENERS, priority 2014, dated 2020)
